{
  "source": "patent US20220170930A1",
  "about": "“METHOD FOR SCREENING COMPOUND FOR TREATING OR PREVENTING POLYQ-RELATED NEURODEGENERATIVE DISEASES” (FUDAN UNIVERSITY, priority 2019, published 2022)",
  "key": {"mHTT [1]": {"test_system": "mHTT", "test": "HTRF mHTT level in HD patient immortalized fibroblasts", "conditions": "for mHTT level: c-Raf inhibitors and KSP inhibitors at 100 nM; for mHTT levels, comparison of FIG. 9: concentrations below the micromolar level", "quoted_text": "Homogeneous time-resolved fluorescence (HTRF) analysis: the cell or tissue lysate was diluted with the original lysis buffer PBS+1% (v/v) Triton X-100+1×cOmplete™ protease inhibitor to lyse the sample, then HTRF assay buffer (50 mM NaH2PO4, 400 mM NaF, 0.1% BSA, 0.05% (v/v) Tween-20, 1% (v/v) Triton X-100, pH 7.4) was used to dilute the specified antibody pair for detection.\nThe immortalized fibroblasts of HD patients were treated using the above-mentioned c-Raf inhibitors and KSP inhibitors respectively at a concentration of 100 nM."}, "His-ATXN1-Q92": {"target": "T1, His-ATXN1-Q92 (Homo sapiens, UniProt P54253, INS208QQQQQQQQQQQQQQQQQQQQQQQQQQQQQQQQQQQQQQQQQQQQQQQQQQQQQQQQQQQQQQQQQQQQQQQQQQQQQQQQ)", "T1 construct": "made in house; host or cells: HEK293T cells (ATCC, CRL-3216)", "T1 sequence (P54253 with tags, fused parts or gaps with the stated changes)": "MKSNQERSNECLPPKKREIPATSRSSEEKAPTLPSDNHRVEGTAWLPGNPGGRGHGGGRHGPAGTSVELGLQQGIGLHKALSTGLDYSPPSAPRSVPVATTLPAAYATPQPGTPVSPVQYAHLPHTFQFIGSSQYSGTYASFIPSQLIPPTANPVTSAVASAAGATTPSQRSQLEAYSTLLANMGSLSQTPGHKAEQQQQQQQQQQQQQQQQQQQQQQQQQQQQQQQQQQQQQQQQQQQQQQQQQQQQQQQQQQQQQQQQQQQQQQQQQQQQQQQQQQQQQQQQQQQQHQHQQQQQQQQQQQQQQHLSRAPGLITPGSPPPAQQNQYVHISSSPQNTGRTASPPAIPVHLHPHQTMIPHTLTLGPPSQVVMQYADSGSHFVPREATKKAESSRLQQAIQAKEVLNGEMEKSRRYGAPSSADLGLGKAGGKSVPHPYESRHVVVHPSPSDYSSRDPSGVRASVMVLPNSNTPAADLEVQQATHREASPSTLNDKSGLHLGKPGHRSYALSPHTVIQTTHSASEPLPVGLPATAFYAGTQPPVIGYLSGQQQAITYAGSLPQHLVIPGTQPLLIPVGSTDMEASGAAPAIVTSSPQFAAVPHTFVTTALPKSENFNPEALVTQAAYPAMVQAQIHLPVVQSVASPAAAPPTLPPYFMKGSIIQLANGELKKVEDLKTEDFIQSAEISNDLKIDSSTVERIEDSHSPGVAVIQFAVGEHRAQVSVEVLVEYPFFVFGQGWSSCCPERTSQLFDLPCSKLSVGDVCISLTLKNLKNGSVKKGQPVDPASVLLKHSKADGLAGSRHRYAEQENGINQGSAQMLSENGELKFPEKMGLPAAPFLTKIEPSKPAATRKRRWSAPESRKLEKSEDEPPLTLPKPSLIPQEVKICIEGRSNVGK", "test": "OI-RD affinity screening with His-ATXN1-Q92", "assay_type": "binding", "conditions": "OI-RD difference images", "experimental": "(1) PolyQ-ATXN1 cDNA (where polyQ is Q92) was synthesized de novo and subcloned into pcDNA vector. It transfected into HEK293T cells (ATCC, CRL-3216) to obtain cells expressing His-ATXN1-Q92 (SEQ ID NO: 3 with a His tag at the N-terminal).\n(2) The His-ATXN1-Q92 expressed in (1) was purified to obtain ATXN1 with abnormally expanded polyQ.\nTo identify compound(s) that can bind to ATXN1 with abnormally expanded polyQ, screening was conducted using a method similar to step (1) of 1.1, except for that the target protein HTTexon1-Q72-MBP in step (1) of 1.1 was replaced with His-ATXN1-Q92."}, "MBP-ATXN3-Q28 [2]": {"target": "T2, MBP-ATXN3-Q28 (Homo sapiens, UniProt P54252, INS305QQQQQQQQQQQQQQQQQQ)", "T2 construct": "His8 with TEV protease cleavage site; made in house; host or cells: Escherichia coli Rosetta(DE3)pLsyS", "T2 sequence (P54252 with tags, fused parts or gaps isoform P54252-4 with the stated changes)": "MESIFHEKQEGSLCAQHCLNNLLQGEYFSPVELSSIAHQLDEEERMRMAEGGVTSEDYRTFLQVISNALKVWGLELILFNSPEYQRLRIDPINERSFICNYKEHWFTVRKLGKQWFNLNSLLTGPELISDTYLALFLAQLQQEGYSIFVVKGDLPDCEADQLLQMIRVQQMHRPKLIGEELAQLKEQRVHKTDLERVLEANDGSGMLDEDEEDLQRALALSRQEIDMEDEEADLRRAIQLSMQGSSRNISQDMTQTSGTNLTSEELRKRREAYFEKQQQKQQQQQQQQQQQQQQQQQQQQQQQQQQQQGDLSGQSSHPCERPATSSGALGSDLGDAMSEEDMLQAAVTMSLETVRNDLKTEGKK", "test": "MST affinity with MBP-ATXN3-Q28", "assay_type": "binding", "experimental": "Protein concentration was 500 nM."}, "[3]": {"target": "T3, wild-type ATXN3 protein (ATXN3-Q27) (Homo sapiens, UniProt P54252, G306R/INS305QQQQQQQQQQQQQQQQQ/V212M)", "T3 construct": "endogenous in cells; host or cells: wild-type fibroblasts (Q27) and/or the normal allele in SCA3 patient fibroblasts", "T3 sequence (P54252 with tags, fused parts or gaps isoform P54252-1 with the stated changes)": "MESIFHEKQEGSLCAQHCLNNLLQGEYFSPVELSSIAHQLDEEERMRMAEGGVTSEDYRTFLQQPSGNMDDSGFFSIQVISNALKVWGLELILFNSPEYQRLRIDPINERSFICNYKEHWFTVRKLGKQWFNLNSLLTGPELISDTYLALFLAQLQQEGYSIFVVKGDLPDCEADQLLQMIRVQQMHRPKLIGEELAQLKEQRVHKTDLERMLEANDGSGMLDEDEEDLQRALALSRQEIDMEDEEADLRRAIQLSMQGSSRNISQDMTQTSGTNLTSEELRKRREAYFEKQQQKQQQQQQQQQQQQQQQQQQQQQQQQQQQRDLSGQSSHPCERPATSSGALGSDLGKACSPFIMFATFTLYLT", "test": "Western-blot wild-type ATXN3 level in fibroblasts", "assay_type": "cell-based", "conditions": "100 nM (compound 4: 50 nM), 2 days", "experimental": "(§1) Then the levels of mutant ATXN3 protein (ATXN3-Q74, SEQ ID NO: 2) and wild-type ATXN3 protein (ATXN3-Q27, SEQ ID NO: 7) were determined by Western-blots (FIG. 26). […] Therefore, the compound of the present invention can be used to treat SCA3."}, "Q25-GFP [4]": {"test_system": "Q25-GFP", "test": "MST affinity with Q25-GFP", "quoted_text": "The affinity of the compound with full-length HTT and LC3B was verified with micro thermophoresis (MST) using Monolith NT.115 instrument from NanoTemper Technologies. The reaction buffer was 20 mM HEPES, pH 7.4, 150 mM NaCl."}, "[5]": {"test_system": "proteins with expanded polyglutamine (polyQ-GFP)", "test": "OI-RD affinity screening with polyQ-GFP proteins", "assay_type": "binding", "conditions": "OI-RD difference images", "experimental": "(§2) To identify compound(s) that can selectively bind to proteins containing expanded polyglutamine, screening was conducted using a method similar to 1.1, except for that the target protein HTTexon1-Q72-MBP in step (1) of 1.1 was replaced with the polyQ-GFP protein prepared in 10.1, and the target protein HTTexon1-Q25-MBP in step (2) of 1.1 was replaced with GFP."}, "MBP-ATXN3-Q28 [6]": {"target": "T2, MBP-ATXN3-Q28", "test": "OI-RD affinity screening with MBP-ATXN3-Q28", "assay_type": "binding", "conditions": "OI-RD difference images", "experimental": "(§3) Screening was conducted using a method similar to 1.1, except for that the target protein HTTexon1-Q72-MBP in step (1) of 1.1 was replaced with MBP-ATXN3-Q68 and the target protein HTTexon1-Q25-MBP in step (2) of 1.1 was replaced with MBP-ATXN3-Q28, to obtain compounds that can selectively bind to ATXN3 with abnormally expanded polyQ (MBP-ATXN3-Q68)."}, "Q25-GFP [7]": {"test_system": "Q25-GFP", "test": "OI-RD affinity screening with Q25-GFP", "assay_type": "binding", "conditions": "OI-RD difference images", "source_text": "(1) PolyQ-GFP cDNA sequence (expressing Met-polyQ-GFP, wherein polyQ was Q72 or Q25) was synthesized de novo and subcloned into pcDNA vector. […] And the same method was used to obtain cells expressing Q53-GFP, cells expressing Q46-GFP, and cells expressing Q38-GFP."}, "[8]": {"target": "T4, mutant ATXN1 protein (His-ATXN1-Q92) (Homo sapiens, UniProt P54253, INS208QQQQQQQQQQQQQQQQQQQQQQQQQQQQQQQQQQQQQQQQQQQQQQQQQQQQQQQQQQQQQQQQQQQQQQQQQQQQQQQQ)", "T4 construct": "expressed in transfected cells; host or cells: HEK293T cells (ATCC, CRL-3216)", "T4 sequence (P54253 with tags, fused parts or gaps with the stated changes)": "as the sequence (P54253 with tags, fused parts or gaps with the stated changes) above", "test": "HTRF mutant ATXN1 level in His-ATXN1-Q92-expressing cells", "assay_type": "cell-based", "conditions": "100 nM, 2 days, anti-His-Tb/MW1-D2"}, "MBP-ATXN3-Q68": {"target": "MBP-ATXN3-Q68 (Homo sapiens, UniProt P54252, INS305QQQQQQQQQQQQQQQQQQQQQQQQQQQQQQQQQQQQQQQQQQQQQQQQQQQQQQQQQQ)", "sequence (P54252 with tags, fused parts or gaps isoform P54252-4 with the stated changes)": "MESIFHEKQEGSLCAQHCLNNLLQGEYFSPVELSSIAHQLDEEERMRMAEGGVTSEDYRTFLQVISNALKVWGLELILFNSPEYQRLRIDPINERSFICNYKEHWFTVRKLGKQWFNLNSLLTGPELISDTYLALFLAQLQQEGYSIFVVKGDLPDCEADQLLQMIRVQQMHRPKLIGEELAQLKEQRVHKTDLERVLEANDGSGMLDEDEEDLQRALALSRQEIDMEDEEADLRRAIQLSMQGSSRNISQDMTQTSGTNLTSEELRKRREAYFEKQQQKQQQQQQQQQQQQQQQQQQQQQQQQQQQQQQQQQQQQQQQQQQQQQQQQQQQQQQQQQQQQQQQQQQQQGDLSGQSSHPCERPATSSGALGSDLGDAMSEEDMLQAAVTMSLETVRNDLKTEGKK", "test": "OI-RD affinity screening with MBP-ATXN3-Q68", "assay_type": "binding", "set-up": "His8 with TEV protease cleavage site; made in house; host or cells: Escherichia coli Rosetta(DE3)pLsyS", "conditions": "OI-RD difference images", "experimental": "as §3"}, "GFP": {"test_system": "GFP", "test": "OI-RD affinity screening with GFP", "assay_type": "binding", "conditions": "OI-RD difference images", "experimental": "as §2"}, "[9]": {"target": "T5, mutant ATXN3 protein (ATXN3-Q74) (Homo sapiens, UniProt P54252, G306R/INS305QQQQQQQQQQQQQQQQQQQQQQQQQQQQQQQQQQQQQQQQQQQQQQQQQQQQQQQQQQQQQQQQ/V212M)", "T5 construct": "endogenous in cells; host or cells: SCA3 patient fibroblasts (Q74)", "T5 sequence (P54252 with tags, fused parts or gaps isoform P54252-1 with the stated changes)": "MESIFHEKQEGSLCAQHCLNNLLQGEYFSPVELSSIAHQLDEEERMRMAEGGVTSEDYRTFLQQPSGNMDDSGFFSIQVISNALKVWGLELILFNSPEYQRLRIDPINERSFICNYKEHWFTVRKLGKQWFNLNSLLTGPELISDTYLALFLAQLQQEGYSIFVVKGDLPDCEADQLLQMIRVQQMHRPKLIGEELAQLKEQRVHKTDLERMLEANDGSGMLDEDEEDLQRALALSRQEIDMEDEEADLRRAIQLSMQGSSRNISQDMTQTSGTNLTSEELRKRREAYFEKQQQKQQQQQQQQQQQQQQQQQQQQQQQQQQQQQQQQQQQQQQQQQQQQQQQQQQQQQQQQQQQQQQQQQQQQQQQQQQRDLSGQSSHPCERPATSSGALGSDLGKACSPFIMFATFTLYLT", "test": "Western-blot mutant ATXN3 level in SCA3 patient fibroblasts", "assay_type": "cell-based", "conditions": "100 nM (compound 4: 50 nM), 2 days", "experimental": "as §1"}, "SQSTM1/p62": {"test_system": "SQSTM1/p62", "test": "SQSTM1/p62 level in mouse cortices after ip injection", "assay_type": "in vivo", "conditions": "HD mice", "experimental": "Using a method similar to 6.2, Hdh^Q140/Q7 mice were administered with injections. A method similar to 7.1 was used to detect the effects of ip-injection of compounds on other known autophagy selective substrate proteins (SQSTM1/p62) in the cortical tissue of Hdh^Q140/Q7 mice."}, "[10]": {"test_system": "polyQ-GFP (Q72-GFP, Q25-GFP)", "test": "polyQ-GFP level in HEK293T cells by Incucyte fluorescence counting", "assay_type": "cell-based", "conditions": "Q72-GFP vs Q25-GFP expressing HEK293T cells, 100 nM compound 1, 100 nM compound 3 or 50 nM compound 4, 2 days", "source_text": "(1) PolyQ-GFP cDNA sequence (expressing Met-polyQ-GFP, wherein polyQ was Q72 or Q25) was synthesized de novo and subcloned into pcDNA vector. It was transfected into HEK293T cells (ATCC, CRL-3216) through forward transfection to obtain Q72-GFP expressing cells and Q25-GFP expressing cells, respectively. And the same method was used to obtain cells expressing Q53-GFP, cells expressing Q46-GFP, and cells expressing Q38-GFP.\nThe Q72-GFP expressing cells and Q25-GFP expressing cells obtained in step (1) of 10.1 were used. […] Then the level of polyQ-GFP was measured by Incucyte fluorescence counting (FIG. 25)."}, "in vivo": {"test": "in vivo", "conditions": "mouse, ip, 0.5 mg/kg", "quoted_text": "Experimental method: The compound or control DMSO was diluted with 0.9% NaCl intravenous infusion solution to 0.05 μg/μL. One ip-injection (0.5 mg/kg) was conducted per day. After 14 days of injection, tissue extraction or behavioral experiment were conducted."}, "mHTT [11]": {"test_system": "mHTT", "test": "Intracerebroventricular injection, mHTT and wtHTT in cortices of HD mice", "assay_type": "in vivo, mouse", "conditions": "mouse, in vivo", "experimental": "Experimental animals: Hdh^Q140/Q7 mice (3 months old), 4 in each group.\nEach test includes three repetitions for each sample, and the mean values was calculated (FIG. 16)."}},
  "note": "Counter-ions that a name gives are not always drawn.",
  "data": [
    {"smiles": "COc1ccc(Oc2cc(NCCC(F)(F)F)c3ncc(-c4ccc(C(=O)NC5CC5)c(C)c4)n3n2)c(F)c1F", "note": "[BAY1217389]", "values": [
      {"measurement": "mHTT level", "setting": "mHTT [1]", "value": "No decrease in mHTT level was observed"},
      {"measurement": "mHTT levels, comparison of FIG. 9", "setting": "mHTT [1]", "value": "did not reduce mHTT levels"}
    ]},
    {"smiles": "CC(C)(C)c1nc(-c2cccc(NS(=O)(=O)c3c(F)cccc3F)c2F)c(-c2ccnc(N)n2)s1", "note": "[Dabrafenib]", "values": [
      {"measurement": "mHTT level", "setting": "mHTT [1]", "value": "No decrease in mHTT level was observed"}
    ]},
    {"smiles": "CC(C)Oc1ccc(C(=O)N[C@H](CNC(=O)CN(C)C)Cc2ccc(-c3cn4cccc([C@H](C)O)c4n3)cc2)cc1Cl", "note": "[GSK923295]", "values": [
      {"measurement": "mHTT level", "setting": "mHTT [1]", "value": "No decrease in mHTT level was observed"}
    ]},
    {"smiles": "CCCS(=O)(=O)Nc1ccc(F)c(C(=O)c2c[nH]c3ncc(Cl)cc23)c1F", "note": "[PLX-4720]", "values": [
      {"measurement": "mHTT level", "setting": "mHTT [1]", "value": "No decrease in mHTT level was observed"},
      {"measurement": "mHTT levels, comparison of FIG. 9", "setting": "mHTT [1]", "value": "did not reduce mHTT levels"}
    ]},
    {"smiles": "CNC(=O)c1cc(Oc2ccc(NC(=O)Nc3ccc(Cl)c(C(F)(F)F)c3)cc2)ccn1", "note": "[Sorafenib Tosylate]", "values": [
      {"measurement": "mHTT level", "setting": "mHTT [1]", "value": "No decrease in mHTT level was observed"}
    ]},
    {"smiles": "O=c1cc(-c2ccccc2)c2c(O)cc(O)cc2o1", "note": "[compound 4]", "values": [
      {"measurement": "binding to His-ATXN1-Q92", "setting": "His-ATXN1-Q92", "value": "can bind"},
      {"measurement": "binding affinity with normal ATXN3 protein (MBP-ATXN3-Q28)", "setting": "MBP-ATXN3-Q28 [2]", "value": "no binding affinity"},
      {"measurement": "wild-type ATXN3 protein level", "setting": "[3]", "value": "no decrease in wild-type ATXN3 protein level was observed"},
      {"measurement": "mHTT levels, comparison of FIG. 9", "setting": "mHTT [1]", "value": "reduces mHTT levels"},
      {"measurement": "binding affinity to Q25-GFP", "setting": "Q25-GFP [4]", "value": "no binding affinity"},
      {"measurement": "binding affinity to proteins with 38 or more glutamine repeats", "setting": "[5]", "value": "showed certain binding affinity"},
      {"measurement": "binding to MBP-ATXN3-Q28", "setting": "MBP-ATXN3-Q28 [6]", "value": "did not bind"},
      {"measurement": "binding to Q25-GFP", "setting": "Q25-GFP [7]", "value": "did not bind"},
      {"measurement": "level of mutant ATXN1 protein (His-ATXN1-Q92)", "setting": "[8]", "value": "Decreased levels of mutant ATXN1 were observed"},
      {"measurement": "binding to MBP-ATXN3-Q68", "setting": "MBP-ATXN3-Q68", "value": "binded"},
      {"measurement": "binding to GFP", "setting": "GFP", "value": "did not bind"},
      {"measurement": "mutant ATXN3 protein level", "setting": "[9]", "value": "A decrease in mutant ATXN3 protein level was observed"},
      {"measurement": "level of SQSTM1/p62 in the cortices", "setting": "SQSTM1/p62", "value": "did not change"},
      {"measurement": "level of proteins containing expanded polyglutamine in cells (polyQ-GFP)", "setting": "[10]", "value": "can selectively reduce the level"},
      {"measurement": "concentration at 2 h", "setting": "in vivo", "value": 9.48, "unit": "ng/g"},
      {"measurement": "mHTT level in cortices", "setting": "mHTT [11]", "value": "significantly reduced mHTT level"}
    ]}
  ]
}
